Measured values reported in ChEMBL document CHEMBL1201862, “PubChem BioAssay data set” (2004).
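1) Cells in 96-well plates. 2) Compound, 48 h, 5 concentrations. 3) Linear interpolation between surrounding doses. 4) Unreached endpoint = highest concentration. Abbreviation: GI50, concentration required for 50% inhibition of growth.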 Calls of active or inactive are those of the source. Cut-off read from the data, not from the text of the source: active = GI50 up to about 1.1 µM and inactive = higher.

What was measured:
Assay in all cases: inhibition of tumour cell growth, NCI panel, 48 h
[1] = test system: SR
[2] = test system: OVCAR-5
[3] = test system: OVCAR-3
[4] = test system: NCI/ADR-RES
[5] = test system: UO-31
[6] = test system: M14
[7] = test system: SW-620
[8] = test system: SK-MEL-2
[9] = test system: HOP-62
[10] = test system: NCI-H522
[11] = test system: IGROV-1
[12] = test system: UACC-257
[13] = test system: Malme-3M
[14] = test system: HT-29
[15] = test system: RXF 393
[16] = test system: NCI-H226
[17] = test system: SK-MEL-28
[18] = test system: KM12
[19] = test system: CCRF-CEM
[20] = test system: SK-OV-3

Row | Compound | GI50 [1] | GI50 [2] | GI50 [3] | GI50 [4] | GI50 [5] | GI50 [6] | GI50 [7] | GI50 [8] | GI50 [9] | GI50 [10] | GI50 [11] | GI50 [12] | GI50 [13] | GI50 [14] | GI50 [15] | GI50 [16] | GI50 [17] | GI50 [18] | GI50 [19] | GI50 [20]
1 | O=C(CSc1nc2ccccc2c2ccccc12)c1ccccc1 | > 100 µM (inactive) | > 100 µM (inactive) | > 100 µM (inactive) | > 100 µM (inactive) | > 100 µM (inactive) | > 100 µM (inactive) | > 100 µM (inactive) | > 100 µM (inactive) | > 100 µM (inactive) | > 100 µM (inactive) | > 100 µM (inactive) | > 100 µM (inactive) | > 100 µM (inactive) | > 100 µM (inactive) | > 100 µM (inactive) | > 100 µM (inactive) | > 100 µM (inactive) | > 100 µM (inactive) | – | –
2 | CC(=O)Nc1cc2c(cc1O)CC[C@@H]1[C@@H]2CC[C@]2(C)[C@@H](O)CC[C@@H]12 | 20.8 µM (inactive) | 86.9 µM (inactive) | – | 19.9 µM (inactive) | 21.5 µM (inactive) | 39.4 µM (inactive) | 27.7 µM (inactive) | – | 73.1 µM (inactive) | 20.8 µM (inactive) | 82.4 µM (inactive) | 43.4 µM (inactive) | 21.8 µM (inactive) | 30.4 µM (inactive) | 43.3 µM (inactive) | 30.8 µM (inactive) | 63.4 µM (inactive) | 15 µM (inactive) | 23.9 µM (inactive) | > 100 µM (inactive)
3 | O=C1C=C[C@@H](COC2OC(CO)C(O)C(O)C2O)O1 (some centres undefined) | – | 22 µM (inactive) | 16.8 µM (inactive) | 4.38 µM (inactive) | 50.2 µM (inactive) | – | 3.78 µM (inactive) | 13.6 µM (inactive) | 56.2 µM (inactive) | 5.14 µM (inactive) | 27.6 µM (inactive) | 14.3 µM (inactive) | – | 5.86 µM (inactive) | – | 35.7 µM (inactive) | > 100 µM (inactive) | 4.95 µM (inactive) | 1.36 µM (inactive) | 73.6 µM (inactive)
4 | O=C1C[C@H](Sc2ccccc2)C2(OCCO2)[C@H]2ON3CCC[C@@H]3[C@@H]12 | 0.286 µM (active) | 3.01 µM (inactive) | 0.904 µM (active) | 4.61 µM (inactive) | 1.58 µM (inactive) | 2.26 µM (inactive) | 0.723 µM (active) | 3.75 µM (inactive) | 2.01 µM (inactive) | 0.321 µM (active) | 0.9 µM (active) | 2.72 µM (inactive) | 1.73 µM (inactive) | 0.759 µM (active) | 1.69 µM (inactive) | 8.22 µM (inactive) | 2.49 µM (inactive) | 1.36 µM (inactive) | 0.127 µM (active) | 3.13 µM (inactive)
5 | O=c1ccc2ccc(S)cc2o1 | > 100 µM (inactive) | > 100 µM (inactive) | > 100 µM (inactive) | > 100 µM (inactive) | > 100 µM (inactive) | > 100 µM (inactive) | > 100 µM (inactive) | > 100 µM (inactive) | > 100 µM (inactive) | 87.3 µM (inactive) | > 100 µM (inactive) | > 100 µM (inactive) | > 100 µM (inactive) | > 100 µM (inactive) | > 100 µM (inactive) | > 100 µM (inactive) | > 100 µM (inactive) | > 100 µM (inactive) | – | > 100 µM (inactive)
6 | O=C(c1ccc(Cl)cc1)N1CCN=C1c1cc2ccccc2c2ccccc12 | 22.6 µM (inactive) | 19.8 µM (inactive) | 17.6 µM (inactive) | 15.6 µM (inactive) | 16.9 µM (inactive) | 38.7 µM (inactive) | 17.3 µM (inactive) | 15.6 µM (inactive) | 18.8 µM (inactive) | – | 14.3 µM (inactive) | 17.5 µM (inactive) | 17.3 µM (inactive) | 15.8 µM (inactive) | 16.1 µM (inactive) | – | 15.5 µM (inactive) | 15.8 µM (inactive) | 27.4 µM (inactive) | 16.1 µM (inactive)
7 | COc1cccc(N/C(C)=C2/CCOC2=O)c1 | > 10 µM (inactive) | > 10 µM (inactive) | > 10 µM (inactive) | > 10 µM (inactive) | 8.15 µM (inactive) | > 10 µM (inactive) | > 10 µM (inactive) | > 10 µM (inactive) | > 10 µM (inactive) | > 10 µM (inactive) | > 10 µM (inactive) | – | > 10 µM (inactive) | > 10 µM (inactive) | > 10 µM (inactive) | > 10 µM (inactive) | > 10 µM (inactive) | > 10 µM (inactive) | > 10 µM (inactive) | > 10 µM (inactive)
8 | O=C(CCl)NC(Cc1ccc(F)cc1)C(=O)O (centres undefined) | – | > 100 µM (inactive) | > 100 µM (inactive) | > 100 µM (inactive) | > 100 µM (inactive) | – | > 100 µM (inactive) | > 100 µM (inactive) | > 100 µM (inactive) | > 100 µM (inactive) | > 100 µM (inactive) | > 100 µM (inactive) | 69.3 µM (inactive) | > 100 µM (inactive) | – | > 100 µM (inactive) | > 100 µM (inactive) | > 100 µM (inactive) | > 100 µM (inactive) | > 100 µM (inactive)
9 | Cc1sc(Cc2ccccc2)nc1-c1ccc(N)cc1 | – | 32.5 µM (inactive) | 20.7 µM (inactive) | 27.7 µM (inactive) | 38.9 µM (inactive) | 20.6 µM (inactive) | 23.7 µM (inactive) | 17.3 µM (inactive) | – | 16 µM (inactive) | 27.9 µM (inactive) | 30 µM (inactive) | 31.3 µM (inactive) | 22.6 µM (inactive) | – | – | 30.9 µM (inactive) | 17 µM (inactive) | 15.9 µM (inactive) | –
10 | Cc1c2ccnc(C(F)(F)F)c2cc2c1[nH]c1ccccc12 | – | > 125 µM (inactive) | 114 µM (inactive) | > 125 µM (inactive) | > 125 µM (inactive) | – | > 125 µM (inactive) | > 125 µM (inactive) | 73.3 µM (inactive) | > 125 µM (inactive) | > 125 µM (inactive) | > 125 µM (inactive) | 98.2 µM (inactive) | > 125 µM (inactive) | 16.6 µM (inactive) | 38.9 µM (inactive) | > 125 µM (inactive) | 121 µM (inactive) | > 125 µM (inactive) | 36.3 µM (inactive)
11 | COP(=O)(OC)C(N)CCSC (centres undefined) | > 100 µM (inactive) | > 100 µM (inactive) | > 100 µM (inactive) | > 100 µM (inactive) | > 100 µM (inactive) | > 100 µM (inactive) | > 100 µM (inactive) | > 100 µM (inactive) | > 100 µM (inactive) | > 100 µM (inactive) | > 100 µM (inactive) | > 100 µM (inactive) | > 100 µM (inactive) | > 100 µM (inactive) | – | > 100 µM (inactive) | > 100 µM (inactive) | > 100 µM (inactive) | > 100 µM (inactive) | > 100 µM (inactive)
12 | CS/C(=N\S(=O)(=O)c1ccc(Cl)cc1)NCCN/C(=N/S(=O)(=O)c1ccc(Cl)cc1)SC | > 100 µM (inactive) | > 100 µM (inactive) | 32 µM (inactive) | > 100 µM (inactive) | > 100 µM (inactive) | > 100 µM (inactive) | > 100 µM (inactive) | 30.1 µM (inactive) | 20.6 µM (inactive) | 2.58 µM (inactive) | > 100 µM (inactive) | > 100 µM (inactive) | 49.8 µM (inactive) | > 100 µM (inactive) | – | – | > 100 µM (inactive) | – | > 100 µM (inactive) | 23.6 µM (inactive)
13 | CC(O)C(O)C(N)CC=O (centres undefined) | – | 175 µM (inactive) | > 500 µM (inactive) | > 500 µM (inactive) | > 500 µM (inactive) | – | > 158 µM (inactive) | > 500 µM (inactive) | > 500 µM (inactive) | 79.3 µM (inactive) | > 500 µM (inactive) | > 500 µM (inactive) | > 500 µM (inactive) | > 500 µM (inactive) | > 500 µM (inactive) | > 500 µM (inactive) | > 500 µM (inactive) | > 500 µM (inactive) | > 500 µM (inactive) | > 500 µM (inactive)
14 | CC1(C)CCCC2(C)[C@@H]1CC[C@]13C[C@](C)(CC[C@@H]21)[C@@H]3CO (some centres undefined) | > 10 µM (inactive) | > 100 µM (inactive) | > 100 µM (inactive) | – | > 100 µM (inactive) | > 100 µM (inactive) | > 100 µM (inactive) | – | > 100 µM (inactive) | > 100 µM (inactive) | > 100 µM (inactive) | > 100 µM (inactive) | > 100 µM (inactive) | > 100 µM (inactive) | 98.9 µM (inactive) | > 100 µM (inactive) | > 100 µM (inactive) | > 100 µM (inactive) | > 100 µM (inactive) | > 100 µM (inactive)
15 | C#C[C@]1(O)[C@@H](CO)O[C@@H](n2ccc(=O)[nH]c2=O)[C@@H]1O | 62.4 µM (inactive) | 0.406 µM (active) | 0.513 µM (active) | < 0.0134 µM (active) | 0.0278 µM (active) | 0.237 µM (active) | 0.082 µM (active) | 0.15 µM (active) | 0.147 µM (active) | 0.0214 µM (active) | 0.0745 µM (active) | 1.81 µM (inactive) | 0.288 µM (active) | 0.0171 µM (active) | – | 0.0746 µM (active) | 0.791 µM (active) | 0.144 µM (active) | 0.19 µM (active) | 1.97 µM (inactive)
